# Reference: patent US8853230B2, “Inhibitors of JAK” (Portola Pharmaceuticals, Inc., priority 2009, dated 2014)
# What was measured:
# Format in all cases: biochemical
# [1] = target: T1, JAK1 (Homo sapiens, UniProt P23458); experiment: Z'-LYTE kinase assay, JAK1 tyrosine phosphorylation activity; settings: read-out: JAK 1 IC50
# T1 construct: 5 μl of catalytic domain recombinant Kinase enzyme+Tyr peptide substrate (Invitrogen, Calif.); purchased Invitrogen
# Outline: (§1)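 Inhibition is expressed as substrate phosphorylation relative to inhibitor-free wells, fitted with a 4-parameter logistic model for IC50. Reactions contain catalytic-domain kinase, Tyr6 peptide and ATP, run 1 h at room temperature. Development protease is added for 1 h before fluorescence readout.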
# [2] = target: T2, JAK2 (Homo sapiens, UniProt O60674); experiment: Z'-LYTE kinase assay, JAK2 tyrosine phosphorylation activity
# T2 construct: 5 μl of catalytic domain recombinant Kinase enzyme+Tyr peptide substrate (Invitrogen, Calif.); purchased Invitrogen
# Outline: as §1
# [3] = target: T3, JAK3 (Homo sapiens, UniProt P52333); experiment: Z'-LYTE kinase assay, JAK3 tyrosine phosphorylation activity
# T3 construct: 5 μl of catalytic domain recombinant Kinase enzyme+Tyr peptide substrate (Invitrogen, Calif.); purchased Invitrogen
# Outline: as §1
# [4] = target: Syk (Homo sapiens, UniProt P43405); experiment: Syk IC50 (Table 1; method not given)
# T3 sequence (P52333 822-1111 limits assumed): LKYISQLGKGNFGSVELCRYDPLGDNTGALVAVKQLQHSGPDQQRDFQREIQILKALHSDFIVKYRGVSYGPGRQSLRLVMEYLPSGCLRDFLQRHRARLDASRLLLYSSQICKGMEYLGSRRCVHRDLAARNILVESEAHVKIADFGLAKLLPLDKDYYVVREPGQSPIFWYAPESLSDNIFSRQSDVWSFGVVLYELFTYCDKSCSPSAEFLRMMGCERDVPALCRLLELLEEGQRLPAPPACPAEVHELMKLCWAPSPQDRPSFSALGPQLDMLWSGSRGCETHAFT
# T1 sequence (P23458 875-1153 limits assumed): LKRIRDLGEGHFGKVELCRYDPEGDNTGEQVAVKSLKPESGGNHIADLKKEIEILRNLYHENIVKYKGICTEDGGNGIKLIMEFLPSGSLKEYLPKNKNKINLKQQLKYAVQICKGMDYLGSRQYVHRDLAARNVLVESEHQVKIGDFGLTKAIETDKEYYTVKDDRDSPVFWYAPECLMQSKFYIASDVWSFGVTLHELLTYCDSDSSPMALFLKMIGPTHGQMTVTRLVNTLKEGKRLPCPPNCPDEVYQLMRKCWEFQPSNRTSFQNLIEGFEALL
# T2 sequence (O60674 849-1124 limits assumed): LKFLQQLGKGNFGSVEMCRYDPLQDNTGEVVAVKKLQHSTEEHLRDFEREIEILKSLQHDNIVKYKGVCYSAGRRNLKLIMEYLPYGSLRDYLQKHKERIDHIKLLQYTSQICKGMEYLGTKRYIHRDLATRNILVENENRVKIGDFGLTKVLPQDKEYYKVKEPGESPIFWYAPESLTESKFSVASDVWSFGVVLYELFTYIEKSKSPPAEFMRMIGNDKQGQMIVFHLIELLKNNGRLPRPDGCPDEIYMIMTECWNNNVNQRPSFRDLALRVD
SMILES,IC50 [1] [µM],IC50 [2] [µM],IC50 [3] [µM],IC50 [4] [µM]
"CN(C)C(=O)Nc1cccc(Nc2ncc(C(N)=O)c(NC3CCCC3)n2)c1 [Example 35, 4-(cyclopentylamino)-2-(3-(3,3-dimethylureido)phenylamino)pyrimidine-5-carboxamide]",0.01 to 0.1,0.01 to 0.1,0.001 to 0.01,0.1 to 1
"NC(=O)c1cnc(Nc2ccc(F)c(NC(=O)N3CCC3)c2)cc1NCc1cccc(F)c1 [Example 305, 6-(3-(azetidine-1-carboxamido)-4-fluorophenylamino)-4-(3-fluorobenzylamino)nicotinamide]",0.1 to 1,0.1 to 1,0.001 to 0.01,> 1
"CC(=O)Nc1cccc(Nc2ncc(C(N)=O)c(N[C@@H](CO)CC(C)C)n2)c1 [Example 62, (R)-2-(3-acetamidophenylamino)-4-(1-hydroxy-4-methylpentan-2-ylamino)pyrimidine-5-carboxamide]",0.01 to 0.1,0.1 to 1,0.01 to 0.1,> 1
"COC(=O)Nc1cc(Nc2ncc(C(N)=O)c(NCC(F)(F)F)n2)ccc1Cl [Example 18, methyl 5-(5-carbamoyl-4-(2,2,2-trifluoroethylamino)pyrimidin-2-ylamino)-2-chlorophenylcarbamate]",> 1,0.1 to 1,0.01 to 0.1,> 1
"CC(=O)Nc1cccc(Nc2ncc(C(N)=O)c(NC[C@H](O)c3ccccc3)n2)c1 [Example 49, (R)-2-(3-acetamidophenylamino)-4-(2-hydroxy-2-phenylethylamino)pyrimidine-5-carboxamide]",0.1 to 1,0.01 to 0.1,0.001 to 0.01,0.1 to 1
"COCC(=O)Nc1cccc(Nc2ncc(C(N)=O)c(NC3CCCC3)n2)c1 [Example 22, 4-(cyclopentylamino)-2-(3-(2-methoxyacetamido)phenylamino)pyrimidine-5-carboxamide]",0.01 to 0.1,0.01 to 0.1,0.001 to 0.01,0.1 to 1
"CCC(=O)Nc1cccc(Nc2ncc(C(N)=O)c(NC3CCCC3)n2)c1 [Example 21, 4-(cyclopentylamino)-2-(3-propionamidophenylamino)pyrimidine-5-carboxamide]",0.01 to 0.1,0.01 to 0.1,0.001 to 0.01,0.1 to 1
"COCC(=O)Nc1cccc(Nc2ncc(C(N)=O)c(NCc3ccc(C)cc3)n2)c1 [Example 43, 2-(3-(2-methoxyacetamido)phenylamino)-4-(4-methylbenzylamino)pyrimidine-5-carboxamide]",0.1 to 1,0.1 to 1,0.01 to 0.1,> 1
"COC(=O)Nc1cc(Nc2ncc(C(N)=O)c(NC3CCCC3)n2)ccc1Cl [Example 25, methyl 5-(5-carbamoyl-4-(cyclopentylamino)pyrimidin-2-ylamino)-2-chlorophenylcarbamate]",0.01 to 0.1,0.1 to 1,0.01 to 0.1,0.1 to 1
"CC(=O)Nc1cccc(Nc2ncc(C(N)=O)c(N[C@H](C)c3ccccc3)n2)c1 [Example 71, (R)-2-(3-acetamidophenylamino)-4-(1-phenylethylamino)pyrimidine-5-carboxamide]",0.1 to 1,0.01 to 0.1,0.001 to 0.01,> 1
"COC(=O)Nc1cccc(Nc2ncc(C(N)=O)c(NC3CCCC3)n2)c1 [Example 23, methyl 3-(5-carbamoyl-4-(cyclopentylamino)pyrimidin-2-ylamino)phenylcarbamate]",0.01 to 0.1,0.01 to 0.1,0.001 to 0.01,0.1 to 1
"COCC(=O)Nc1cccc(Nc2ncc(C(N)=O)c(NC3CCC3)n2)c1 [Example 55, 4-(cyclobutylamino)-2-(3-(2-methoxyacetamido)phenylamino)pyrimidine-5-carboxamide]",0.01 to 0.1,0.01 to 0.1,0.001 to 0.01,0.1 to 1
"NC(=O)Nc1cccc(Nc2ncc(C(N)=O)c(NC3CCCC3)n2)c1 [Example 33, 4-(cyclopentylamino)-2-(3-ureidophenylamino)pyrimidine-5-carboxamide]",0.01 to 0.1,0.01 to 0.1,0.001 to 0.01,0.1 to 1
"CC(=O)Nc1cccc(Nc2ncc(C(N)=O)c(NCc3ccc(C)cc3)n2)c1 [Example 67, 2-(3-acetamidophenylamino)-4-(4-methylbenzylamino)pyrimidine-5-carboxamide]",0.1 to 1,0.1 to 1,0.01 to 0.1,> 1
"CNC(=O)Nc1cccc(Nc2ncc(C(N)=O)c(NC3CCCC3)n2)c1 [Example 34, 4-(cyclopentylamino)-2-(3-(3-methylureido)phenylamino)pyrimidine-5-carboxamide]",0.01 to 0.1,0.01 to 0.1,0.001 to 0.01,0.1 to 1
"COCC(=O)Nc1cccc(Nc2ncc(C(N)=O)c(NCc3c(F)ccc(F)c3F)n2)c1 [Example 58, 2-(3-(2-methoxyacetamido)phenylamino)-4-(2,3,6-trifluorobenzylamino)pyrimidine-5-carboxamide]",0.01 to 0.1,0.001 to 0.01,0.001 to 0.01,0.1 to 1
"CC(=O)Nc1cccc(Nc2ncc(C(N)=O)c(N[C@H]3CCC[C@@H]3O)n2)c1 (relative stereo) [Example 53, 2-(3-acetamidophenylamino)-4-((trans)-2-hydroxycyclopentylamino)pyrimidine-5-carboxamide]",0.01 to 0.1,0.01 to 0.1,0.001 to 0.01,0.1 to 1
"CC(=O)Nc1cccc(Nc2ncc(C(N)=O)c(NC3CC3c3ccccc3)n2)c1 (stereo not drawn) [Example 51, 2-(3-acetamidophenylamino)-4-(2-phenylcyclopropylamino)pyrimidine-5-carboxamide]",0.1 to 1,0.01 to 0.1,0.01 to 0.1,0.1 to 1
"COc1ccc(CNc2nc(Nc3cccc(NC(C)=O)c3)ncc2C(N)=O)cc1 [Example 68, 2-(3-acetamidophenylamino)-4-(4-methoxybenzylamino)pyrimidine-5-carboxamide]",0.1 to 1,0.1 to 1,0.01 to 0.1,> 1
"CC(=O)Nc1cccc(Nc2ncc(C(N)=O)c(NC(C)(C)C)n2)c1 [Example 13, 2-(3-acetamidophenylamino)-4-(tert-butylamino)pyrimidine-5-carboxamide]",,,,0.1 to 1
"CCNc1nc(Nc2cccc(NC(C)=O)c2)ncc1C(N)=O [Example 9, 2-(3-acetamidophenylamino)-4-(ethylamino)pyrimidine-5-carboxamide]",,,,0.1 to 1
"COCCNc1nc(Nc2cccc(NC(C)=O)c2)ncc1C(N)=O [Example 14, 2-(3-acetamidophenylamino)-4-(2-methoxyethylamino)pyrimidine-5-carboxamide]",,,,0.1 to 1
"CC(=O)Nc1cccc(Nc2ncc(C(N)=O)c(NC(C)C)n2)c1 [Example 11, 2-(3-acetamidophenylamino)-4-(isopropylamino)pyrimidine-5-carboxamide]",,,,0.1 to 1
"C#CCNc1nc(Nc2cccc(NC(C)=O)c2)ncc1C(N)=O [Example 10, 2-(3-acetamidophenylamino)-4-(prop-2-ynylamino)pyrimidine-5-carboxamide]",,,,0.1 to 1
